The values below come from paper PMC1350429 (Purinergic Signalling, 2005).

Read-outs that look alike come from different tables or passages of the source.

The target of test [1] is T1, human P2Y1 receptor (Homo sapiens, UniProt P47900). Briefly: Yeast liquid growth assay. In kind it is cell-based.
The target of test [2] is T1, human P2Y1 receptor. It is filed as cell-based. To be noted: for Calcium response on addition of nucleotide: control experiments.
Test [3] has as its target T1, human P2Y1 receptor. Briefly: [3H]MRS2279 binding assay, membranes from astrocytoma cells.
The target of test [4] is P2Y1 receptor. To be noted: read-out: KB previously reported; cited from earlier work.
[5] abbreviates: read-out: Functional potency (EC50), Calcium (astrocytoma), 1321N1 astrocytoma cells, FlexStation, n = 3.
Setting [6] is: read-out: Binding (Ki), Astrocytoma, competition for [3H]MRS2279 (8 nM) binding, 30 min, 4°C.

T1 sequence (P47900 whole entry): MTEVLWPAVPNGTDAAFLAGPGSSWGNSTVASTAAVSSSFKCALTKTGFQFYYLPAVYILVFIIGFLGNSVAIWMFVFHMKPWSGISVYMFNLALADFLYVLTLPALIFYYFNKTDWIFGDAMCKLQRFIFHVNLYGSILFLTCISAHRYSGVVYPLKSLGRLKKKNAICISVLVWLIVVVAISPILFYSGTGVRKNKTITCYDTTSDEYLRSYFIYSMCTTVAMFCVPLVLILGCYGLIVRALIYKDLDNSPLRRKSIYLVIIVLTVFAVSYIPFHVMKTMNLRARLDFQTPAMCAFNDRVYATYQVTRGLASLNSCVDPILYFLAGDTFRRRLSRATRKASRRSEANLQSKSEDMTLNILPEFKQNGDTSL

As for `O=c1ccn([C@@H]2O[C@H](COP(=O)(O)OP(=O)(O)O)[C@@H](O)[C@H]2O)c(=O)[nH]1` [UDP, uridine 5’-diphosphate], the “Yeast growth in presence of nucleotide” value in test [1] (data not shown) was “Basal growth was low”. In test [2], the “Calcium response on addition of nucleotide” value is “did not induce any response”.

In the case of “2-hexylthioadenosine 5′-monophosphate [HT-AMP]”, the half-maximal effective concentration (EC50) – broadly, the concentration that produces a half-maximal response – in test [2] (setting [5]) worked out at 16 ± 11 nM. Also, the Ki – broadly, the equilibrium dissociation constant of an inhibitor or competing ligand from its target – in test [3] (setting [6]) came out at 1700 nM.

On to `Nc1ncnc2c1ncn2[C@@H]1O[C@H](COP(=O)(O)OP(=O)(O)O)[C@@H](O)[C@H]1O` [ADP, adenosine 5′-diphosphate], for which the EC50 in test [1] amounted to 1800 ± 650 nM; in test [2], 58 ± 17 nM.

Regarding `Nc1ncnc2c1ncn2[C@@H]1O[C@H](COP(=O)(O)OP(=O)(O)OP(=O)(O)O)[C@@H](N)[C@H]1O` [3AM-ATP, 3′-amino-3′-deoxy-ATP], the EC50 in test [2] (setting [5]) was 3000 ± 1500 nM.

Consider `Nc1ccc(CCSc2nc(N)c3ncn([C@@H]4O[C@H](COP(=O)(O)OP(=O)(O)OP(=O)(O)O)[C@@H](O)[C@H]4O)c3n2)cc1` [PAPET-ATP, 2-[4-amino (2-phenylethyl)thio]-ATP], for which the EC50 in test [2] (setting [5]) came to 28 ± 13 nM. Also, the Ki in test [3] (setting [6]) stood at 1100 nM.

As to `Nc1ncnc2c1ncn2[C@@H]1O[C@H](COP(=O)(O)OP(=O)(O)S)[C@@H](O)[C@H]1O` (stereo partly drawn) [ADP-β-S, adenosine 5′-O-(2-thio-diphosphate)], the EC50 in test [1] was 21000 nM; in test [2] it was 86 ± 42 nM. The same compound yielded a Ki in test [3] of 710 nM.

With `CNc1ncnc2c1ncn2[C@H]1C[C@H](OP(=O)(O)O)[C@@H](COP(=O)(O)O)O1` [MRS2179, N^6-methyl-2′-deoxyadenosine-3′,5′-bisphosphate], the “Effect on ADP concentration-response curve in yeast growth assay” value in test [1] (MRS2179 fixed at 10^-6, 10^-5, 10^-4 M, agonist ADP) was “right shift in the curves”. Also, the Kb in test [4] is 177 nM; in test [2] (KB (Schild analysis), antagonism of ADP-induced calcium mobilization) it was 164 nM.

For the compound `O=c1ccn([C@@H]2O[C@H](COP(=O)(O)OP(=O)(O)OP(=O)(O)O)[C@@H](O)[C@H]2O)c(=O)[nH]1` [UTP, uridine 5’-triphosphate], the “Calcium response on addition of nucleotide” value in test [2] is on record as “did not induce any response”.
